Results reported in patent US20230248741A1, “Compositions and Methods for Lowering Triglycerides in a Subject with Reduced Kidney Function and Diabetes Mellitus” (Amarin Pharmaceuticals Ireland Limited, priority 2018, published 2023).

Legend:
[1] = tested on: patients with diabetes mellitus and eGFR <90 mL/min/1.73 m^2 for ≥3 months; assay: ANCHOR post-hoc (diabetes mellitus, eGFR <90): adverse events and renal parameters; type: in vivo, human
Description: Safety assessments will include adverse events, clinical laboratory measurements (chemistry, hematology, and urinalysis), 12-lead electrocardiograms (ECGs), vital signs, and physical examinations.
CVD-related (e.g., atherogenic) parameters were analyzed in a post-hoc study of 198 patients from the multi-center, placebo-controlled, randomized double-blind, 12-week study described in Example 1. These 198 patients have reduced kidney reduced function (e.g., eGFR<90 mL/min/1.73 m^2 for ≥3 months) and diabetes mellitus.
In this study, 6 patients in the placebo group discontinued (i.e., withdrawal with consent [n=2]; adverse event [n=2]; death [n=1]; other reason [n=1] and 4 patients from the 4 g/day group discontinued (i.e., adverse event [n=3] and other reason [n=1]). The death in the placebo group was due to myocardial infarction and not considered to be assigned to the investigational agent.

[2] = Essential fatty acids in plasma and RBC by gas chromatography, 6-week AAMI study; type: in vivo, human
Description: Blood samples (10 mL) were collected at Visit 1 (screening) and at Visits 4, 5, and 6. Analysis was performed by MSR Lipid Analysis, Scottish Crop Research Institute, Dundee, UK. The screening sample acted as baseline for the EFA measurements. Lipid was extracted from plasma, serum, and RBC suspensions and converted into fatty acid methyl esters which were analyzed by gas chromatography to give fatty acid profiles as micrograms fatty acid per gram of sample (mFA/g) and normalized area percent.
RBC and plasma EFA data were collected at baseline, Day 14, 28, and 42 and summarized by visit for each treatment group. Change from baseline and percent change from baseline were also summarized. ANCOVA comparison of E-EPA dose groups and E-EPA versus placebo was performed.
Notable changes for these parameters occurred in the E-EPA treatment groups at Days 14, 28, and 42 compared to placebo.

CC/C=C\C/C=C\C/C=C\C/C=C\C/C=C\CCCC(=O)OCC [E-EPA, ethyl eicosapentaenoate]
renal function ([1]; 4 g/day): no negative impact on renal function
Patients With TEAEs: Any TEAE ([1]; 4 g/day (n = 100)): 49 (49.0) n (%)
Patients With TEAEs: Arthralgia ([1]; 4 g/day (n = 100)): 1 (1.0) n (%)
Patients With TEAEs: Diarrhea ([1]; 4 g/day (n = 100)): 5 (5.0) n (%)
Patients With TEAEs: Nasopharyngitis ([1]; 4 g/day (n = 100)): 1 (1.0) n (%)
Patients With TEAEs: Nausea ([1]; 4 g/day (n = 100)): 3 (3.0) n (%)
patients discontinued due to adverse event ([1]; 4 g/day group, 4 discontinued in total): 3 n
serum creatinine after 12 weeks ([1]; 4 g/day, before 0.9 mg/dL, no significant change): 0.9 mg/dL
BUN after 12 weeks ([1]; 4 g/day, before 18 mg/dL, no significant change): 18 mg/dL
albumin after 12 weeks ([1]; 4 g/day, before 4.5 g/dL, no significant change): 4.5 g/dL
eGFR after 12 weeks ([1]; 4 g/day, before 75.4, no significant change): 79.1 mL/min/1.73 m^2
AA Plasma Mean change from Baseline ([2]; 1 g daily, Day 14): -9.7 µg/g
AA RBC Mean change from Baseline ([2]; 1 g daily, Day 14): -8.1 µg/g
DGLA Plasma Mean change from Baseline ([2]; 1 g daily, Day 14): -10.4 µg/g
DGLA RBC Mean change from Baseline ([2]; 1 g daily, Day 14): -2.7 µg/g
DHA Plasma Mean change from Baseline ([2]; 1 g daily, Day 14): -6.4 µg/g
DHA RBC Mean change from Baseline ([2]; 1 g daily, Day 14): -4.6 µg/g
DPAn-3 Plasma Mean change from Baseline ([2]; 1 g daily, Day 14): 7.5 µg/g
DPAn-3 RBC Mean change from Baseline ([2]; 1 g daily, Day 14): 0.9 µg/g
AA Plasma Mean change from Baseline ([2]; 1 g daily, Day 28): -11.3 µg/g
AA RBC Mean change from Baseline ([2]; 1 g daily, Day 28): -17.0 µg/g
DGLA Plasma Mean change from Baseline ([2]; 1 g daily, Day 28): -10.6 µg/g
DGLA RBC Mean change from Baseline ([2]; 1 g daily, Day 28): -3.8 µg/g
DHA Plasma Mean change from Baseline ([2]; 1 g daily, Day 28): -6.6 µg/g
DHA RBC Mean change from Baseline ([2]; 1 g daily, Day 28): -6.4 µg/g
DPAn-3 Plasma Mean change from Baseline ([2]; 1 g daily, Day 28): 8.9 µg/g
DPAn-3 RBC Mean change from Baseline ([2]; 1 g daily, Day 28): 3.3 µg/g
AA Plasma Mean change from Baseline ([2]; 1 g daily, Day 42): -8.7 µg/g
AA RBC Mean change from Baseline ([2]; 1 g daily, Day 42): -14.2 µg/g
DGLA Plasma Mean change from Baseline ([2]; 1 g daily, Day 42): -9.4 µg/g
DGLA RBC Mean change from Baseline ([2]; 1 g daily, Day 42): -3.5 µg/g
DHA Plasma Mean change from Baseline ([2]; 1 g daily, Day 42): -5.4 µg/g
DHA RBC Mean change from Baseline ([2]; 1 g daily, Day 42): -7.0 µg/g
DPAn-3 Plasma Mean change from Baseline ([2]; 1 g daily, Day 42): 11.3 µg/g
DPAn-3 RBC Mean change from Baseline ([2]; 1 g daily, Day 42): 6.5 µg/g
AA Plasma Baseline Mean ([2]; 1 g daily, baseline): 202.5 µg/g
AA RBC Baseline Mean ([2]; 1 g daily, baseline): 171.2 µg/g
DGLA Plasma Baseline Mean ([2]; 1 g daily, baseline): 51.2 µg/g
DGLA RBC Baseline Mean ([2]; 1 g daily, baseline): 23.0 µg/g
DHA Plasma Baseline Mean ([2]; 1 g daily, baseline): 73.1 µg/g
DHA RBC Baseline Mean ([2]; 1 g daily, baseline): 66.5 µg/g
DPAn-3 Plasma Baseline Mean ([2]; 1 g daily, baseline): 21.1 µg/g
DPAn-3 RBC Baseline Mean ([2]; 1 g daily, baseline): 34.1 µg/g
AA Plasma LS Mean, 1 or 2 g versus 4 g ([2]; 1 g versus 4 g): 4.2 µg/g
AA RBC LS Mean, 1 or 2 g versus 4 g ([2]; 1 g versus 4 g): 8.4 µg/g
DGLA Plasma LS Mean, 1 or 2 g versus 4 g ([2]; 1 g versus 4 g): 3.7 µg/g
DGLA RBC LS Mean, 1 or 2 g versus 4 g ([2]; 1 g versus 4 g): 1.5 µg/g
DHA Plasma LS Mean, 1 or 2 g versus 4 g ([2]; 1 g versus 4 g): -0.8 µg/g
DHA RBC LS Mean, 1 or 2 g versus 4 g ([2]; 1 g versus 4 g): 1.0 µg/g
DPAn-3 Plasma LS Mean, 1 or 2 g versus 4 g ([2]; 1 g versus 4 g): -15.1 µg/g
DPAn-3 RBC LS Mean, 1 or 2 g versus 4 g ([2]; 1 g versus 4 g): -6.2 µg/g
AA Plasma Mean change from Baseline ([2]; 2 g daily, Day 14): -13.9 µg/g
AA RBC Mean change from Baseline ([2]; 2 g daily, Day 14): -3.1 µg/g
DGLA Plasma Mean change from Baseline ([2]; 2 g daily, Day 14): -14.1 µg/g
DGLA RBC Mean change from Baseline ([2]; 2 g daily, Day 14): -2.6 µg/g
DHA Plasma Mean change from Baseline ([2]; 2 g daily, Day 14): -5.4 µg/g
DHA RBC Mean change from Baseline ([2]; 2 g daily, Day 14): -2.0 µg/g
DPAn-3 Plasma Mean change from Baseline ([2]; 2 g daily, Day 14): 17.4 µg/g
DPAn-3 RBC Mean change from Baseline ([2]; 2 g daily, Day 14): 5.6 µg/g
AA Plasma Mean change from Baseline ([2]; 2 g daily, Day 28): 21.6 µg/g
AA RBC Mean change from Baseline ([2]; 2 g daily, Day 28): -14.1 µg/g
DGLA Plasma Mean change from Baseline ([2]; 2 g daily, Day 28): -16.2 µg/g
DGLA RBC Mean change from Baseline ([2]; 2 g daily, Day 28): -4.5 µg/g
DHA Plasma Mean change from Baseline ([2]; 2 g daily, Day 28): -8.1 µg/g
DHA RBC Mean change from Baseline ([2]; 2 g daily, Day 28): -6.2 µg/g
DPAn-3 Plasma Mean change from Baseline ([2]; 2 g daily, Day 28): 19.4 µg/g
DPAn-3 RBC Mean change from Baseline ([2]; 2 g daily, Day 28): 9.4 µg/g
AA Plasma Mean change from Baseline ([2]; 2 g daily, Day 42): -27.3 µg/g
AA RBC Mean change from Baseline ([2]; 2 g daily, Day 42): -18.8 µg/g
DGLA Plasma Mean change from Baseline ([2]; 2 g daily, Day 42): -17.3 µg/g
DGLA RBC Mean change from Baseline ([2]; 2 g daily, Day 42): -5.3 µg/g
DHA Plasma Mean change from Baseline ([2]; 2 g daily, Day 42): -6.0 µg/g
DHA RBC Mean change from Baseline ([2]; 2 g daily, Day 42): -6.3 µg/g
DPAn-3 Plasma Mean change from Baseline ([2]; 2 g daily, Day 42): 19.3 µg/g
DPAn-3 RBC Mean change from Baseline ([2]; 2 g daily, Day 42): 13.2 µg/g
AA Plasma Baseline Mean ([2]; 2 g daily, baseline): 227.3 µg/g
AA RBC Baseline Mean ([2]; 2 g daily, baseline): 172.8 µg/g
DGLA Plasma Baseline Mean ([2]; 2 g daily, baseline): 53.5 µg/g
DGLA RBC Baseline Mean ([2]; 2 g daily, baseline): 23.0 µg/g
DHA Plasma Baseline Mean ([2]; 2 g daily, baseline): 75.1 µg/g
DHA RBC Baseline Mean ([2]; 2 g daily, baseline): 64.8 µg/g
DPAn-3 Plasma Baseline Mean ([2]; 2 g daily, baseline): 19.7 µg/g
DPAn-3 RBC Baseline Mean ([2]; 2 g daily, baseline): 33.2 µg/g
AA Plasma LS Mean, 1 or 2 g versus 4 g ([2]; 2 g versus 4 g): 15.6 µg/g
AA RBC LS Mean, 1 or 2 g versus 4 g ([2]; 2 g versus 4 g): 9.8 µg/g
DGLA Plasma LS Mean, 1 or 2 g versus 4 g ([2]; 2 g versus 4 g): 2.5 µg/g
DGLA RBC LS Mean, 1 or 2 g versus 4 g ([2]; 2 g versus 4 g): 1.5 µg/g
DHA Plasma LS Mean, 1 or 2 g versus 4 g ([2]; 2 g versus 4 g): 1.5 µg/g
DHA RBC LS Mean, 1 or 2 g versus 4 g ([2]; 2 g versus 4 g): 1.0 µg/g
DPAn-3 Plasma LS Mean, 1 or 2 g versus 4 g ([2]; 2 g versus 4 g): -9.5 µg/g
DPAn-3 RBC LS Mean, 1 or 2 g versus 4 g ([2]; 2 g versus 4 g): -2.5 µg/g
AA Plasma Mean (SD) change from Baseline ([2]; 4 g daily, Day 14): −27.2 (28.89) μg/g
AA RBC Mean (SD) change from Baseline ([2]; 4 g daily, Day 14): −15.7 (26.76) μg/g
DGLA Plasma Mean change from Baseline ([2]; 4 g daily, Day 14): -22.9 µg/g
DGLA RBC Mean change from Baseline ([2]; 4 g daily, Day 14): -5.3 µg/g
DHA Plasma Mean change from Baseline ([2]; 4 g daily, Day 14): -10.3 µg/g
DHA RBC Mean change from Baseline ([2]; 4 g daily, Day 14): -6.9 µg/g
DPAn-3 Plasma Mean change from Baseline ([2]; 4 g daily, Day 14): 24.5 µg/g
DPAn-3 RBC Mean change from Baseline ([2]; 4 g daily, Day 14): 5.4 µg/g
AA Plasma Mean (SD) change from Baseline ([2]; 4 g daily, Day 28): −43.7 (32.24) μg/g
AA RBC Mean (SD) change from Baseline ([2]; 4 g daily, Day 28): −22.8 (29.56) μg/g
DGLA Plasma Mean change from Baseline ([2]; 4 g daily, Day 28): -24.2 µg/g
DGLA RBC Mean change from Baseline ([2]; 4 g daily, Day 28): -7.1 µg/g
DHA Plasma Mean change from Baseline ([2]; 4 g daily, Day 28): -13.5 µg/g
DHA RBC Mean change from Baseline ([2]; 4 g daily, Day 28): -8.7 µg/g
DPAn-3 Plasma Mean change from Baseline ([2]; 4 g daily, Day 28): 29.7 µg/g
DPAn-3 RBC Mean change from Baseline ([2]; 4 g daily, Day 28): 12.4 µg/g
AA Plasma Mean (SD) change from Baseline ([2]; 4 g daily, Day 42): −48.3 (22.20) μg/g
AA RBC Mean (SD) change from Baseline ([2]; 4 g daily, Day 42): −34.4 (31.44) μg/g
DGLA Plasma Mean change from Baseline ([2]; 4 g daily, Day 42): -22.5 µg/g
DGLA RBC Mean change from Baseline ([2]; 4 g daily, Day 42): -8.0 µg/g
DHA Plasma Mean change from Baseline ([2]; 4 g daily, Day 42): -13.8 µg/g
DHA RBC Mean change from Baseline ([2]; 4 g daily, Day 42): -13.8 µg/g
DPAn-3 Plasma Mean change from Baseline ([2]; 4 g daily, Day 42): 32.0 µg/g
DPAn-3 RBC Mean change from Baseline ([2]; 4 g daily, Day 42): 16.2 µg/g
AA Plasma Baseline Mean (SD) ([2]; 4 g daily, baseline): 220.9 (42.80) μg/g
AA RBC Baseline Mean (SD) ([2]; 4 g daily, baseline): 171.0 (25.17) μg/g
DGLA Plasma Baseline Mean ([2]; 4 g daily, baseline): 57.1 µg/g
DGLA RBC Baseline Mean ([2]; 4 g daily, baseline): 24.0 µg/g
DHA Plasma Baseline Mean ([2]; 4 g daily, baseline): 78.8 µg/g
DHA RBC Baseline Mean ([2]; 4 g daily, baseline): 68.3 µg/g
DPAn-3 Plasma Baseline Mean ([2]; 4 g daily, baseline): 21.7 µg/g
DPAn-3 RBC Baseline Mean ([2]; 4 g daily, baseline): 34.5 µg/g
